Bridge positions count the residues as written; N and C are the ends. Ends that are not written are not given here.
What was measured:
Type in all cases: in vivo
[1] = system: TNFα-dependent septic shock in mice; assay: model of endotoxinic shock (LPS with Galactosamine) after preimmunization; conditions: Balb/c mice preimmunized with KLH-coupled peptide, shock on day D50 by LPS with Galactosamine; control KLH alone; p=0.008
Description: 4 murine TNFα peptides coupled to the KLH carrier protein, including the cyclized peptide CVSRFAISYQEKVNLLSC (SEQ ID NO:15) called TNFα-6, were tested in a model of endotoxinic shock. For this purpose, Balb/c mice were preimmunized against these peptides on days D0, […], and D40. On day D50, the mice were subjected to shock, i.e. they were injected with LPS with Galactosamine. A control was carried out on mice immunized against KLH alone.
It is noted that all the mice died after two days, except for the group immunized against the TNFα-6 peptide where the mice were protected. The protection conferred by the immunization was very significant (p=0.008).

native mTNFα cytokine = assay: ELISA test of serum antibodies against native mTNFα after immunization; set-up: unit not given here; conditions: ELISA on serum day D50; groups of 4 mice, 20 ug peptide coupled to KLH, boosters D20 and D40
Description: (§1) 6 groups of 4 mice were immunized against 20 ug of the murine IL1β peptides IRQLHYRLRDEQQKSL (group 1) (SEQ ID NO:11), SFVQGEPSNDKIP (group 2) (SEQ ID NO:12), QYPKKKMEKRFVFNKIEV (group 3) (SEQ ID NO:13), IIDFTMESVSS (group 4) (SEQ ID NO:14), and 20 ug of the murine TNFα peptide KYLDFAESGQVY (group 5) (SEQ ID NO:6) all coupled to KLH. Group 6 corresponds to mice immunized by KLH alone. A booster was administered on days D20 and D40. On day D50 the mice were sacrificed and the antibodies directed against the native mTNFα cytokine and the native mIL1β cytokine in the serums were measured by an ELISA test.

native mIL1β cytokine = assay: ELISA test of serum antibodies against native mIL1β after immunization; set-up: unit not given here; conditions: ELISA on serum day D50; groups of 4 mice, 20 ug peptide coupled to KLH, boosters D20 and D40
Description: as §1

[2] = system: collagen arthritis induced in mice; assay: model of collagen arthritis after preimmunization; conditions: DBA1 mice preimmunized with KLH-coupled peptide, collagen in Freund's adjuvant D80 and D95, scored D100-D160; control KLH alone; p=0.0003, ANOVA test
Description: 3 murine IL1β peptides coupled to the KLH protein, including the cyclized IL1-6 peptide of sequence YCYISTSQAEHKPVFLGC (SEQ ID NO:16), were tested in a model of collagen arthritis. For this purpose, DBA1 mice were preimmunized against these peptides on days D0, D20, D40, […]. On day D80 the mice were immunized against collagen in Freund's adjuvant, and similarly on day D95. The development of arthritis was monitored between day D100 and day D160: twice weekly, the mice were examined and a score was attributed to them as a function of the state of inflammation of their joints (0=no inflammation, 1=slight inflammation, 2=average inflammation, 3=strong inflammation).

| Sequence | survival of mice subjected to septic shock (protection) [1] | Anti-TNFα response Average (native mTNFα cytokine) | Anti-IL1β response Average (native mIL1β cytokine) | clinical score of joint inflammation (protection with respect to control) [2] |
| --- | --- | --- | --- | --- |
| CVSRFAISYQEKVNLLSC (disulfide 1-18 (inferred)) [TNFα-6, cyclized murine TNFα peptide] | protected | – | – | – |
| IIDFTMESVSS [Group 4, murine IL1β peptide 142-152] | – | 0.12 | 0.8 | – |
| IRQLHYRLRDEQQKSL [Group 1, murine IL1β peptide 3-18] | – | 0.13 | 1.5 | – |
| KYLDFAESGQVY [Group 5, murine TNFα peptide 140-150] | – | 1.3 | 0.31 | – |
| QYPKKKMEKRFVFNKIEV [Group 3, murine IL1β peptide 89-106] | – | 0.18 | 1.6 | – |
| SFVQGEPSNDKIP [Group 2, murine IL1β peptide 45-57] | – | 0.15 | 1.9 | – |
| VSRFAISYQEKVNLLS [SEQ ID NO:1, peptide area 80-95 of the murine TNFα cytokine] | capable of blocking TNFα-dependent septic shock in mice | – | – | – |
| YCYISTSQAEHKPVFLGC (disulfide 2-18 (inferred); also: coupled to KLH carrier protein) [IL1β-6, cyclized murine IL1β peptide] | – | – | – | strong protection level |
| YISTSQAEHKPVFLG [SEQ ID NO:3, peptide area 121-135 of the murine IL1β cytokine] | – | – | – | capable of blocking collagen arthritis induced in mice |
